Assay [1] deals with T1, N-formyl peptide receptor 2 (Homo sapiens, UniProt P25090).
T1 sequence (P25090 whole entry): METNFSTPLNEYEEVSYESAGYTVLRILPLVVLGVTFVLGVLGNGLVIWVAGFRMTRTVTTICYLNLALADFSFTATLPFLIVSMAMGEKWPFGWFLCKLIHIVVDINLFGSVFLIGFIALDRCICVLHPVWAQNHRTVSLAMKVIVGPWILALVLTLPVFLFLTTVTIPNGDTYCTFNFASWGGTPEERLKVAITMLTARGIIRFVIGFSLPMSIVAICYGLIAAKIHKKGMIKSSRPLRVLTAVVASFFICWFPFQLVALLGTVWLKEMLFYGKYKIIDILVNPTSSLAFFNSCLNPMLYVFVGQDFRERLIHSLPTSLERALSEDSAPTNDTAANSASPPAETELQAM

The target in assay [2] is T2, fMet-Leu-Phe receptor (Homo sapiens, UniProt P21462).
T2 sequence (P21462 whole entry): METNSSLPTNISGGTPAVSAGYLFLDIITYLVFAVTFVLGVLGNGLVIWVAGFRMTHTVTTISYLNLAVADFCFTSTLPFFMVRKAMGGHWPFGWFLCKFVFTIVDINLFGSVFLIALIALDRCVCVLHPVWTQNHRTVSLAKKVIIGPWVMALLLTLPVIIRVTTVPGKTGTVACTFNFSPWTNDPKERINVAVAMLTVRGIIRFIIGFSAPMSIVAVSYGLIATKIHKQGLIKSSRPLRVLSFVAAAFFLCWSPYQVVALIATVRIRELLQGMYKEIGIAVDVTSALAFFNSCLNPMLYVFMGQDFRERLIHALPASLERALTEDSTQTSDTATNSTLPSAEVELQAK

One may read the EC50 as the concentration at which the effect is half-maximal. On to `COc1cc(F)c(-n2cc(-c3ccccc3)nc2NC(=O)c2ccc(OC(F)F)cc2)c(F)c1` [WO2022076764, Example 1], for which the EC50 in assay [1] was 200 nM; in assay [2] it was 4 nM.

As to `COc1ccc(-n2cc(-c3ccccc3)nc2NC(=O)c2ccc(OC(F)F)cc2)cc1` [WO2022076764, Example 2], the EC50 in assay [1] stood at 38 nM; in assay [2] it was 3 nM.

Consider `COc1cccc(-c2cn(-c3c(F)cc(OC)cc3F)c(NC(=O)c3ccc(OC(F)F)cc3)n2)c1` [WO2022076764, Example 3], for which the concentration for a half-maximal effect (EC50) stood at 88 nM in assay [1] and 8 nM in assay [2].

In the case of `COc1cc(F)c(-n2cc(-c3ccc(F)cc3)nc2NC(=O)c2ccc(OC(F)F)cc2)c(F)c1` [WO2022076764, Example 4], the EC50 in assay [1] worked out at 400 nM; in assay [2] it was 11 nM.

As to `COc1cc(F)c(-n2cc(-c3ccc(Cl)c(C)c3)nc2NC(=O)c2ccc(OC(F)F)cc2)c(F)c1` [WO2022076764, Example 5], the EC50 in assay [1] turned out to be 140 nM; in assay [2], 47 nM.

Consider `COc1cc(F)c(-n2cc(-c3ccc(C(F)(F)F)cc3)nc2NC(=O)c2ccc(OC(F)F)cc2)c(F)c1` [WO2022076764, Example 6], for which the EC50 in assay [1] was 120 nM; in assay [2], 76 nM.

For `COc1cc(F)c(-n2cc(-c3ccc(OC(F)F)cc3)nc2NC(=O)c2ccc(OC(F)F)cc2)c(F)c1` [WO2022076764, Example 7], the EC50 in assay [1] turned out to be 190 nM; in assay [2], 33 nM.

With `COc1cc(F)c(-n2c(NC(=O)c3ccc(OC(F)F)cc3)nc(-c3ccccc3)c2C)c(F)c1` [WO2022076764, Example 8], the EC50 is 230 nM in assay [1] and 8 nM in assay [2].

For the molecule `COc1cc(F)c(-n2cc(-c3ccc4ccccc4c3)nc2NC(=O)c2ccc(OC(F)F)cc2)c(F)c1` [WO2022076764, Example 9], the EC50 in assay [1] is 460 nM; in assay [2] it was 220 nM.

As to `COc1cc(F)c(-n2cc(-c3cccc(F)c3)nc2NC(=O)c2ccc(OC(F)F)cc2)c(F)c1` [WO2022076764, Example 10], the EC50 worked out at 200 nM in assay [1] and 7 nM in assay [2].

Regarding `COc1cc(F)c(-n2cc(-c3ccc(Cl)cc3)nc2NC(=O)c2ccc(OC(F)F)cc2)c(F)c1` [WO2022076764, Example 11], the concentration giving a half-maximal response (EC50) in assay [1] was found to be 140 nM; in assay [2], 24 nM.

Turning to `COc1cc(F)c(-n2cc(-c3cccc(Cl)c3)nc2NC(=O)c2ccc(OC(F)F)cc2)c(F)c1` [WO2022076764, Example 12], the EC50 in assay [1] was 450 nM; in assay [2] it was 15 nM.

Turning to `COc1cc(F)c(-n2c(NC(=O)c3ccc(OC(F)F)cc3)nc(-c3ccc(Cl)cc3)c2C)c(F)c1` [WO2022076764, Example 13], the EC50 in assay [1] worked out at 550 nM; in assay [2], 53 nM.

With `COc1ccc(-c2cn(-c3c(F)cc(OC)cc3F)c(NC(=O)c3ccc(OC(F)F)cc3)n2)cc1` [WO2022076764, Example 14], the results for the concentration for a half-maximal effect (EC50) in assay [1] and in assay [2] were 160 nM and 39 nM, respectively.

For `COc1cc(F)c(-n2cc(-c3ccc(C)cc3)nc2NC(=O)c2ccc(OC(F)F)cc2)c(F)c1` [WO2022076764, Example 15], the concentration giving a half-maximal response (EC50) was found to be 130 nM in assay [1] and 23 nM in assay [2].

With `COc1cc(F)c(-n2cc(-c3ccc(C#N)cc3)nc2NC(=O)c2ccc(OC(F)F)cc2)c(F)c1` [WO2022076764, Example 16], the EC50 in assay [1] is 230 nM; in assay [2], 27 nM.

As to `COc1cc(F)c(-n2cc(-c3cccc(C#N)c3)nc2NC(=O)c2ccc(OC(F)F)cc2)c(F)c1` [WO2022076764, Example 17], the figures for the EC50 in assay [1] and in assay [2] were 46 nM and 5 nM, respectively.

As to `COc1cc(F)c(-n2cc(-c3ccc(Cl)c(Cl)c3)nc2NC(=O)c2ccc(OC(F)F)cc2)c(F)c1` [WO2022076764, Example 18], the EC50 in assay [1] worked out at 400 nM; in assay [2] it was 51 nM.

As for `COc1ccc(-n2cc(-c3ccc4c(c3)CCO4)nc2NC(=O)c2ccc(OC(F)F)cc2)cc1` [WO2022076764, Example 19], the EC50 is 93 nM in assay [1] and 28 nM in assay [2].

Turning to `COc1ccc(-n2cc(-c3ccnc(Cl)c3)nc2NC(=O)c2ccc(OC(F)F)cc2)cc1` [WO2022076764, Example 20], the figures for the concentration for a half-maximal effect (EC50) in assay [1] and in assay [2] were 19 nM and 5 nM, respectively.

For the molecule `COc1ccc(-n2cc(-c3ccc(F)cc3F)nc2NC(=O)c2ccc(OC(F)F)cc2)cc1` [WO2022076764, Example 21], the values for the EC50 in assay [1] and in assay [2] were 76 nM and 29 nM, respectively.

On to `COc1ccc(-n2cc(-c3ccc4sccc4c3)nc2NC(=O)c2ccc(OC(F)F)cc2)cc1` [WO2022076764, Example 22], for which the EC50 stood at 140 nM in assay [1] and 86 nM in assay [2].

As to `COc1ccc(-n2cc(-c3nc4ccccc4s3)nc2NC(=O)c2ccc(OC(F)F)cc2)cc1` [WO2022076764, Example 23], the values for the EC50 in assay [1] and in assay [2] were 44 nM and 28 nM, respectively.

With `COc1ccc(-n2cc(-c3nccs3)nc2NC(=O)c2ccc(OC(F)F)cc2)cc1` [WO2022076764, Example 24], the EC50 in assay [1] is 110 nM; in assay [2] it was 9 nM.

As for `COc1cc(F)c(-n2cc(-c3ccccc3F)nc2NC(=O)c2ccc(OC(F)F)cc2)c(F)c1` [WO2022076764, Example 25], the EC50 in assay [1] was 47 nM; in assay [2], 6 nM.

`COc1ccc(-n2cc(-c3nc4cc(Cl)ccc4o3)nc2NC(=O)c2ccc(OC(F)F)cc2)cc1` [WO2022076764, Example 26]: the values for the EC50 in assay [1] and in assay [2] were 400 nM and 72 nM, respectively.

Consider `COc1ccc(-n2cc(C3CCCCC3)nc2NC(=O)c2ccc(OC(F)F)cc2)cc1` [WO2022076764, Example 27], for which the EC50 in assay [1] worked out at 660 nM; in assay [2], 55 nM.

On to `COc1ccc(-n2cc(-c3ccccn3)nc2NC(=O)c2ccc(OC(F)F)cc2)cc1` [WO2022076764, Example 28], for which the EC50 stood at 1030 nM in assay [1] and 700 nM in assay [2].

For the molecule `CCOC(=O)c1cc(-c2cn(-c3ccc(OC)cc3)c(NC(=O)c3ccc(OC(F)F)cc3)n2)on1` [WO2022076764, Example 29], the 50% effective concentration (EC50) stood at 32 nM in assay [1] and 15 nM in assay [2].

With `CCOC(=O)c1cn(-c2ccc(OC)cc2)c(NC(=O)c2ccc(OC(F)F)cc2)n1` [WO2022076764, Example 30], the EC50 in assay [1] was determined as 100 nM; in assay [2], 9 nM.

Take `COc1ccc(-n2cc(C34CC5CC(CC(C5)C3)C4)nc2NC(=O)c2ccc(OC(F)F)cc2)cc1` [WO2022076764, Example 31]: the EC50 was > 10000 nM in assay [1] and 320 nM in assay [2].

`COc1ccc(-n2cc(C(C)(C)C)nc2NC(=O)c2ccc(OC(F)F)cc2)cc1` [WO2022076764, Example 32]: the figures for the EC50 in assay [1] and in assay [2] were 110 nM and 18 nM, respectively.

With `COc1cc(F)c(-n2cc(-c3ccccc3F)nc2NC(=O)c2ccc(OC(F)F)cc2)c(F)c1` [WO2022076764, Example 33], the EC50 came out at 940 nM in assay [1] and 39 nM in assay [2].

`COc1cc(F)c(-n2cc(-c3ccnc(Cl)c3)nc2NC(=O)c2ccc(OC(F)F)cc2)c(F)c1` [WO2022076764, Example 34]: the EC50 in assay [1] was 120 nM; in assay [2], 16 nM.

On to `COc1cc(F)c(-n2cc(CC(C)C)nc2NC(=O)c2ccc(OC(F)F)cc2)c(F)c1` [WO2022076764, Example 35], for which the concentration for a half-maximal effect (EC50) in assay [1] amounted to 1400 nM; in assay [2] it was 99 nM.

Turning to `COc1cc(F)c(-n2cc(-c3ccc(F)c(F)c3)nc2NC(=O)c2ccc(OC(F)F)cc2)c(F)c1` [WO2022076764, Example 36], the EC50 came to 320 nM in assay [1] and 31 nM in assay [2].

Turning to `COc1cc(F)c(-n2cc(C3CC3)nc2NC(=O)c2ccc(OC(F)F)cc2)c(F)c1` [WO2022076764, Example 37], the EC50 in assay [1] amounted to 800 nM; in assay [2], 16 nM.

Consider `CCOC(=O)c1cn(-c2c(F)cc(OC)cc2F)c(NC(=O)c2ccc(OC(F)F)cc2)n1` [WO2022076764, Example 38], for which the results for the EC50 in assay [1] and in assay [2] were 620 nM and 15 nM, respectively.

`CCc1cn(-c2c(F)cc(OC)cc2F)c(NC(=O)c2ccc(OC(F)F)cc2)n1` [WO2022076764, Example 39]: the EC50 in assay [1] came to 1000 nM; in assay [2], 21 nM.

For the molecule `COc1cc(F)c(-n2cc(-c3nccs3)nc2NC(=O)c2ccc(OC(F)F)cc2)c(F)c1` [WO2022076764, Example 40], the EC50 in assay [1] worked out at 1000 nM; in assay [2] it was 11 nM.

Take `COc1cc(F)c(-n2cc(C3CCOCC3)nc2NC(=O)c2ccc(OC(F)F)cc2)c(F)c1` [WO2022076764, Example 41]: the EC50 in assay [1] turned out to be 230 nM; in assay [2] it was 26 nM.

For `COc1cc(F)c(-n2cc(C(F)(F)C(F)(F)F)nc2NC(=O)c2ccc(OC(F)F)cc2)c(F)c1` [WO2022076764, Example 42], the EC50 in assay [1] was found to be 57 nM; in assay [2], 48 nM.

With `COc1cc(F)c(-n2cc(C(F)(F)F)nc2NC(=O)c2ccc(OC(F)F)cc2)c(F)c1` [WO2022076764, Example 43], the values for the half-maximal effective concentration (EC50) in assay [1] and in assay [2] were 40 nM and 10 nM, respectively.

With `COc1cc(F)c(-n2cc(C(=O)NCc3cc[nH]n3)nc2NC(=O)c2ccc(OC(F)F)cc2)c(F)c1` [WO2022076764, Example 44], the results for the EC50 in assay [1] and in assay [2] were 370 nM and 48 nM, respectively.

Values taken from BindingDB's records for patent WO2022076764 (BRISTOL-MYERS SQUIBB COMPANY, 2022).
